Test results taken from US7378387B2, “Method of suppressing immune response by reducing intracellular content of glutathione in macrophages and monocytes” (Ajinomoto Co., Inc., priority 1997, dated 2008).
Positions of bridges follow the written chain, without caps; N, C: chain ends. Residues, ends and D or L forms follow the SMILES beside them. Chains are numbered I, II in the order given.

Experiments:
[1] = test system: reduced glutathione in intraperitoneal macrophages; experiment: Reduced glutathione in intraperitoneal macrophages of NOD mice by ACAS (Example 22); format: in vivo; conditions: doses given per substance
[2] = test system: peritoneal exudate cells (macrophages); experiment: Induction of oxidative or reductive macrophages by administration, monochlorobimane/ACAS (Example 9); format: in vivo, DBA/2 mice; conditions: intraperitoneally 20 μg/0.5 ml/h each, twice a week for three weeks, 9-11 weeks of age
Method: This was clarified by harvesting peritoneal exudate cells 20 hours after the completion of the administration, adhering the cells to the plastic surface, then reacting the cells with 10 μM of monochlorobimane at 37° C. for 30 minutes, and analyzing the reaction product with ACAS. The increase in the amounts of oxidative macrophages can easily be determined visually from the fact that almost no reaction product with monochlorobimane is observed, namely, a gray or blue image is provided, and the increase in the amounts of reductive macrophages from the fact that a red or yellow image is provided respectively. […] Meanwhile, the same examination was conducted by harvesting peritoneal exudate cells after 20 hours of the administration of 2 mg of N-acetylcystine (NAC).

[3] = test system: macrophage-like cells from tissues of rheumatoid arthritis patients; experiment: Intracellular GSH by ACAS in macrophage-like cells from tissues of rheumatoid arthritis patients (Example 17); format: cell-based, human; conditions: 3 hours; for induction of oxidative macrophage with the reduced amount of intracellular glutathione: added at 2 μM; for relative ratio of oxidative macrophages (reduced amount of intracellular glutathione) compared with saline-added group: added at 2 mM
Method: Synovial tissue was aseptically sampled from tissues resected during joint surgery. The sampled synovial tissue was rinsed in phosphate buffer, from which the surface was peeled off in a petri dish containing the same phosphate buffer. Then, the resulting synovial tissue was cut into pieces with a pair of scissors. To the pieces were added 2% hyaluronidase (manufactured by Sigma), 0.2% DNase (derived from bovine pancreas) and 5% collagenase, for enzymatic treatment at 37° C. for 2 hours. After discarding the resulting debris, a cell fraction recovered by centrifugation was adjusted to 5×10^5 cells/ml in a phenol red-free DMEM culture medium supplemented with 10% FCS (manufactured by Nikken Biology Co.). For 3 hours, the cells were allowed to adhere to the plastic surface. Plastic surface adherent macrophage-like cells harvested with a rubber policeman were then subjected to rinsing in combination with centrifugation three times using the culture medium under ice cooling. The resulting cells were designated as synovial tissue-derived macrophages and were then subjected to the following experiments.
By the same manner as in Example 3, macrophage-like cells were collected from tissues of rheumatoid arthritis patients, and were then suspended and adjusted in a phenol red-free RPMI 1640 culture medium supplemented with 10% fetal calf serum to 3×10^6 cells/ml. The suspension was divided in 100-μl portions on Lab-Tek Chamber Slide (#136439; manufactured by NUNC, CO.), for culturing in 5% CO2 at 37° C. for 3 hours; after discarding the nonadherent cells, the 200-μl serum-free culture medium further containing any of the following chemical agents was fed to the resulting culture, for reaction for 3 hours; and then, the resulting culture was rinsed three times, followed by addition of the serum-free culture medium of 200 μl and addition of monochlorobimane to a final concentration of 10 μM, for reaction for 30 minutes. The amount of intracellular GSH was assayed by imaging analysis with an ACAS system (manufactured by Meridian Co.).

[4] = test system: adjuvant-induced arthritis; experiment: Adjuvant-induced arthritis (AA) in rats, joint swelling (Examples 18 and 19); format: in vivo, Lewis rats; conditions: Table 4
Method: Adjuvant-induced arthritis was triggered in Lewis rats in a conventional manner; and the effects of chemical agents were examined in the animals. Adjuvant-induced arthritis is well known as an experimental arthritis inducible in rats [Taurog et al., Meth. Enzymol. 162, 339-355 (1988)]. […] An adjuvant is administered at 1 mg/0.1 ml per rate at a site of caudal root. The edema reaches its peak about 2 to 3 weeks after the administration of the adjuvant. The edema is triggered by inflammatory infiltration of monocytes. Swollen joints are measured with a micrometer every day; comparing the diameters of the joints prior to and after adjuvant administration and after initiation of the treatment with chemical agents with the diameters of the joints in the control group, the effects of the chemical agents were expressed as the ratio in % of joint swelling in the experimental groups to joint swelling in the control group. The effects were determined on day 15 after adjuvant administration. The chemical agents were given, starting the day next to the day of adjuvant administration, and every 3 days thereafter.
A single dose is 1 mg/kg for (NAC)2 and (NAC-OMe)2; 100 mg/kg for NAC; and 0.1 mg/kg for lentinan.
Adjuvant-induced arthritis was induced in Lewis rats in a conventional manner. In the same manner as in Example 11, the effects of chemical agents were examined in these rats. The conditions were the same as described above.

[5] = test system: spontaneous onset of insulin-dependent diabetes mellitus; experiment: Onset of diabetes mellitus in NOD mice dosed at age 9 to 11 weeks (Example 25); format: in vivo; conditions: nine times
From the text: NOD mice purchased from Nippon Clair, Co. were naturally mated together. Among the off spring mice, a colony of NOD mice with a high frequency of the spontaneous onset of insulin-dependent diabetes mellitus was established. Female NOD mice from the colony were used for the present experiment. Chemical agents were orally or intraperitoneally administered to the NOD mice aged 9 to 11 weeks three times per week, in total nine times; and based on the test results of urine glucose, positive or negative, the onset of diabetes mellitus was followed once per week. Urine glucose was detected, using Uropaper (BM Test Glucose 5000, manufactured by Yamanouchi Pharmaceuticals, Co. Ltd.). The onset was judged on week 22; the doses were the same as in Example 24.

[6] = test system: spontaneous onset of insulin-dependent diabetes mellitus; experiment: Onset of diabetes mellitus in NOD mice dosed at age 3 to 6 and 9 to 11 weeks (Example 24); format: in vivo; conditions: doses as in the table line, 15 times in total, judged on week 22, saline 60
From the text: NOD mice purchased from Nippon Clair, Co. were naturally mated together. Among the off spring mice, a colony of NOD mice with a high frequency of the spontaneous onset of insulin-dependent diabetes mellitus was established. Female NOD mice from the colony were used for the present experiment. […] Urine glucose was detected, using Uropaper (BM Test Glucose 5000, manufactured by Yamanouchi Pharmaceuticals, Co. Ltd.). The onset was judged on week 22.

[7] = test system: insulin-non-dependent diabetes mellitus; experiment: Blood sugar level in db/db mice (Example 26); format: in vivo; conditions: intraperitoneal, age 4 to 9 weeks, three times per week; at satiation; saline 100
From the text: db/db mice purchased from Nippon Clair, Co. were naturally mated together. Among the off spring mice, a colony of db/db mice with a high frequency of the spontaneous onset of insulin-non-dependent diabetes mellitus was established. Male db/db mice from the colony were used for the present experiment. Chemical agents were intraperitoneally administered to the db/db mice aged 4 to 9 weeks three times per week, in total 18 times; and based on the level of blood sugar in the mice at satiation, the effects of the chemical agents on the improvement of the diseased conditions of insulin-non-dependent diabetes mellitus were followed once per week. The doses were the same as in Example 24.

[8] = intraperitoneal dosing on alternate days from age 3-4 weeks
[9] = oral dosing on alternate days from age 3-4 weeks
[10] = intraperitoneal, judged on week 22, doses as in Example 24, saline 67

Compound	relative ratio of oxidative macrophages compared with saline-dosed NOD mice [1, 8]	induction of oxidative macrophages on ACAS [2]	induction of oxidative macrophage with the reduced amount of intracellular glutathione [3]	relative ratio of oxidative macrophages (reduced amount of intracellular glutathione) compared with saline-added group [3]	relative ratio of oxidative macrophages compared with saline-dosed NOD mice [1, 9]	other results
O=C(O)CCCC[C@@H]1CCSS1 (racemic) [lipoic acid]	same action is also observed	–	–	–	–	–
CC(=O)N[C@@H](CSSC[C@H](NC(C)=O)C(=O)OC(C)C)C(=O)OC(C)C [(NAC-OiPr)2, N,N′-diacetylcystine diisopropyl ester]	–	induction of oxidative macrophages was confirmed	confirmed	–	–	–
COC(=O)[C@H](CSSC[C@H](NC(=O)[C@H](C)N)C(=O)OC)NC(=O)[C@H](C)N [(NAlaC-OMe)2, N,N′-di-L-alanylcystine dimethyl ester] (I: H-Ala-Cys-OMe / II: H-Ala-Cys-OMe; disulfide I:2-II:2)	–	induction of oxidative macrophages was confirmed	confirmed	–	–	Ratio in % of joint swelling in experimental groups to joint swelling in control group ([4]; intravenous): 45%; Frequency (%) of onset of diabetes mellitus ([5]; route not given, judged on week 22, saline 67): 11%
CC(=O)N[C@@H](CSSC[C@H](NC(C)=O)C(=O)OCCCCO[N+](=O)[O-])C(=O)O [N,N′-diacetylcystine nitroxybutyl ester]	–	induction of oxidative macrophages was confirmed	confirmed	–	–	–
CC(=O)N[C@@H](CS)C(=O)OCCCCO[N+](=O)[O-] [N-acetylcysteine nitroxybutyl ester]	same action is also observed	–	–	same action was also observed	same action is also observed	–
CCOC(=O)CNC(=O)[C@H](CS)NC(=O)CC[C@H](N)C(=O)OCC [glutathione diethyl ester]	same action is also observed	–	–	same action was also observed	same action is also observed	Ratio in % of joint swelling in experimental groups to joint swelling in control group ([4]; intraperitoneal, 100 mg/kg): 132%; Frequency (%) of onset of diabetes mellitus ([6]; intraperitoneal): 0%; Frequency (%) of onset of diabetes mellitus ([6]; oral): 0%; Frequency (%) of onset of diabetes mellitus [5, 10]: 67%; Relative ratio % of blood sugar level, 6 weeks [7]: 82%; Relative ratio % of blood sugar level, 7 weeks [7]: 62%; Relative ratio % of blood sugar level, 8 weeks [7]: 60%
COC(=O)C(N)CCC(=O)NC(CS)C(=O)OC (stereo not shown) [γ-glutamylcysteine dimethyl ester]	same action is also observed	–	–	same action was also observed	–	Ratio in % of joint swelling in experimental groups to joint swelling in control group ([4]; intraperitoneal, 100 mg/kg): 120%; Frequency (%) of onset of diabetes mellitus ([6]; intraperitoneal): 10%; Frequency (%) of onset of diabetes mellitus ([6]; oral): 20%; Frequency (%) of onset of diabetes mellitus [5, 10]: 55%; Relative ratio % of blood sugar level, 6 weeks [7]: 85%; Relative ratio % of blood sugar level, 7 weeks [7]: 65%; Relative ratio % of blood sugar level, 8 weeks [7]: 60%
glutathione nitroxybutyl ester	same action is also observed	–	–	same action was also observed	same action is also observed	–
